Residue numbers refer to the chain shown, from its start. Like-named read-outs stand apart in the source and are kept apart here.
Legend:
Format in all cases: cell-based
[1] = biological target: T1, AR protein (Homo sapiens, UniProt P10275); test: Degradation of AR protein in VCaP cells (Western blot); details: 8 hours; for inhibition at 0.01 µM: compound at 10 nM, read-out: Degradation rate of the AR protein in VCaP cells, 10 nM (%); for inhibition at 0.1 µM: compound at 100 nM, read-out: Degradation rate of the AR protein in VCaP cells, 100 nM (%)
T1 construct: degradation activity of the compounds disclosed in the present disclosure on AR protein in VCaP cells; host or cells: VCaP
T1 sequence (P10275 1-920): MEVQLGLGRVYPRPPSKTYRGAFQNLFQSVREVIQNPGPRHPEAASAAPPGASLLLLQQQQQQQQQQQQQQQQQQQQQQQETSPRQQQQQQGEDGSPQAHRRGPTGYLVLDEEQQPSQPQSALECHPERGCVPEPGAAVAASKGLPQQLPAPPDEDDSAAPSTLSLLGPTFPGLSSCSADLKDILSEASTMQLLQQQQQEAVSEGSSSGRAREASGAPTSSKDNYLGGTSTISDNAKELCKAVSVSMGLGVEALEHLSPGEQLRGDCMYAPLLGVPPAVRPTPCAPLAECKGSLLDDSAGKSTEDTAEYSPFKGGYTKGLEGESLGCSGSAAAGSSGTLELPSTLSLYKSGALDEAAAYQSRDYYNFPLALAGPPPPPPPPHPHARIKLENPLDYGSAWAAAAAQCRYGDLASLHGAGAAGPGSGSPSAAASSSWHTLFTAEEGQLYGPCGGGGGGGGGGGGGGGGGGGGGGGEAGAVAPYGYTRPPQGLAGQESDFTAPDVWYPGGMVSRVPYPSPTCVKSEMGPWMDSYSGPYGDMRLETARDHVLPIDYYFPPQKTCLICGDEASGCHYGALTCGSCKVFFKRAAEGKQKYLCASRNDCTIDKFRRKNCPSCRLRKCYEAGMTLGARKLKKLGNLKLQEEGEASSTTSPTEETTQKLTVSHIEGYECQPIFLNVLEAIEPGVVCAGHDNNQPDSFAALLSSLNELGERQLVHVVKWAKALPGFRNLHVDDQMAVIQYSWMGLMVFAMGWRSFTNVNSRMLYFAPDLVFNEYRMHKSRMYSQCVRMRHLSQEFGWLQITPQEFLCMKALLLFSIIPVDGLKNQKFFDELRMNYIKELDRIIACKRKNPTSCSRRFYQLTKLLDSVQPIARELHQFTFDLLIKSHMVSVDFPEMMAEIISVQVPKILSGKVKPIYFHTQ
In short: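 Western blot readout: AR band grayscale normalised to GAPDH, used to derive degradation rate. Lysates came from VCaP cells exposed to compound for 8 h, with solvent controls run in parallel.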

[2] = system: LNCaP FGC cells; test: Inhibition of proliferation of LNCaP cells (WST-8); details: Homo sapiens, LNCaP, 96 h
Description: The cells were cultured in a cell culture incubator with 5% CO2 at 37° C. overnight. […] On the sixth day, 96 well plates were taken out, and 20 μL of WST-8 (Beytime, C0040) reagent was added to each well.

[3] = biological target: T2, AR protein (Homo sapiens, UniProt P10275, T878A); test: Degradation of AR protein in LNCaP cells (Western blot); details: for inhibition at 0.01 µM: read-out: Degradation rates of the AR protein in LNCaP cells, 10 nM (%); for inhibition at 0.1 µM: read-out: Degradation rates of the AR protein in LNCaP cells, 100 nM (%)
T2 construct: degradation activity of the compounds disclosed in the present disclosure on AR protein in LNCaP cells; host or cells: LNCaP FGC
T2 sequence (P10275 1-920 T878A): T1 sequence (P10275 1-920) with T878A
In short: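 Percent AR degradation was derived from GAPDH-normalised Western blot band intensities (infrared detection) in LNCaP lysates.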

[4] = system: VCaP cells; test: Inhibition of proliferation of VCaP cells (WST-8); details: Homo sapiens, read-out: IC50 for inhibiting the proliferation of VCaP cells
In short: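 Proliferation was read by WST-8 on day nine. Cells were VCaP FGC, seeded at 15000 cells per well in 10% FBS DMEM and kept at 37° C with 5% CO2.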

[5] = LNCaP FGC cells, 96 hours, WST-8 absorbance at 450 nm, read-out: IC50 for inhibiting the proliferation of LNCaP cells
[6] = LNCaP cells, compound 10 nM, 8 hours, Western blot grayscale, GAPDH internal reference
[7] = LNCaP cells, compound 100 nM, 8 hours, Western blot grayscale, GAPDH internal reference
[8] = VCaP cells, 168 hours, WST-8 absorbance at 450 nm
[9] = read-out: IC50 for inhibiting the proliferation of LNCaP cells, LNCaP FGC cells, 96 hours, WST-8 absorbance at 450 nm

| SMILES | inhibition at 0.01 µM [1] [%] | inhibition at 0.1 µM [1] [%] | IC50 [2, 5] [nM] | inhibition at 0.01 µM [3, 6] [%] | inhibition at 0.1 µM [3, 7] [%] | IC50 [4, 8] [nM] | IC50 [2, 9] [nM] | inhibition at 0.01 µM ([3]; LNCaP, 8 h) [%] | inhibition at 0.1 µM ([3]; LNCaP, 8 h) [%] | IC50 ([4]; VCaP, 168 h) [nM] |
| --- | --- | --- | --- | --- | --- | --- | --- | --- | --- | --- |
| N#Cc1ccc(O[C@H]2CC[C@H](NC(=O)c3ccc(N4CCC(F)(CN5CC6(CCc7ccc8c(c7O6)C(=O)N(C6CCC(=O)NC6=O)C8)C5)CC4)nn3)CC2)cc1Cl (stereo partly drawn) [Compound 139] | -16 | -31 | 52300 | 42 | 11 | > 90000 | – | – | – | – |
| CCC1(CN2CCC3(CC2)COc2c3ccc3c2C(=O)N(C2CCC(=O)NC2=O)C3=O)CCN(c2ccc(C(=O)N[C@H]3C(C)(C)[C@H](Oc4ccc(C#N)c(OC)c4)C3(C)C)cc2)CC1 (stereo partly drawn) [Compound 286] | -33 | -9 | 3720 | 22 | 34 | 57 | – | – | – | – |
| COc1cc(O[C@H]2C(C)(C)[C@H](NC(=O)c3ccc(N4CCC(C)(CN5CCC6(CC5)COc5cc7c(cc56)C(=O)N(C5CCC(=O)NC5=O)C7=O)CC4)cc3)C2(C)C)ccc1C#N (stereo partly drawn) [Compound 288] | 7 | 41 | 65900 | -18 | 18 | 74 | – | – | – | – |
| N#Cc1ccc(O[C@H]2CC[C@H](NC(=O)c3ccc(N4CC(N5CCC6(CCc7ccc8c(c7O6)CN(C6CCC(=O)NC6=O)C8=O)CC5)C4)nn3)CC2)cc1Cl (stereo partly drawn) [Compound 172] | -9 | -14 | – | – | – | – | 91400 | 12 | 33 | 78800 |
| N#Cc1ccc(O[C@H]2CC[C@H](NC(=O)c3ccc(N4CCC(CO)(CN5CCC6(CC5)COc5c6ccc6c5CN(C5CCC(=O)NC5=O)C6=O)CC4)nn3)CC2)cc1Cl (stereo partly drawn) [Compound 257] | 67 | 75 | 14 | 36 | -41 | 1.5 | – | – | – | – |
| N#Cc1ccc(O[C@H]2CC[C@H](NC(=O)c3ccc(N4CCC(N5CCC6(CC5)COc5cc7c(cc56)C(=O)N(C5CCC(=O)NC5=O)C7=O)CC4)nn3)CC2)cc1Cl (stereo partly drawn) [Compound 48] | 69 | 82 | – | – | – | – | 1670 | 73 | 91 | 180 |
| N#Cc1ccc(O[C@H]2CC[C@H](NC(=O)c3ccc(C#Cc4ccc(N5CCC6(CC5)COc5c6ccc6c5CN(C5CCC(=O)NC5=O)C6=O)nc4)nn3)CC2)cc1Cl (stereo partly drawn) [Compound 239] | 11 | 54 | 13500 | 65 | 69 | 22 | – | – | – | – |
| N#Cc1ccc(O[C@H]2CC[C@H](NC(=O)c3ccc(N4CC5(CCC(C(=O)N6CCC7(CC6)COc6c7ccc7c6CN(C6CCC(=O)NC6=O)C7=O)CC5)C4)nn3)CC2)cc1Cl (stereo partly drawn) [Compound 255] | 63 | 82 | 50200 | 55 | 44 | 11 | – | – | – | – |
| COc1cc(O[C@H]2C(C)(C)[C@H](NC(=O)c3ccc(N4CCC(C#N)(CN5CCC6(CC5)COc5c6ccc6c5CN(C5CCC(=O)NC5=O)C6=O)CC4)cc3)C2(C)C)ccc1C#N (stereo partly drawn) [Compound 208] | 17 | 67 | 10 | 34 | 38 | 3.5 | – | – | – | – |
| N#Cc1ccc(O[C@H]2CC[C@H](NC(=O)c3ccc(N4CC[C@H](CN5CCC6(CCc7cc8c(cc7O6)C(=O)N(C6CCC(=O)NC6=O)C8=O)CC5)C4)nn3)CC2)cc1Cl (stereo partly drawn) [Compound 22] | 58 | 64 | 600 | 71 | 84 | 230 | – | – | – | – |
| N#Cc1ccc(O[C@H]2CC[C@H](NC(=O)c3ccc(N4CC5(CCC(N6CCC7(CC6)COc6cc8c(cc67)C(=O)N(C6CCC(=O)NC6=O)C8=O)CC5)C4)nn3)CC2)cc1Cl (stereo partly drawn) [Compound 53] | 62 | 71 | 380 | 69 | 85 | 43 | – | – | – | – |
| CCOC1(CN2CCC3(CC2)COc2c3ccc3c2C(=O)N(C2CCC(=O)NC2=O)C3=O)CCN(c2ccc(C(=O)N[C@H]3CC[C@H](Oc4ccc(C#N)c(C(F)(F)F)c4)CC3)nn2)CC1 (stereo partly drawn) [Compound 242] | -5 | 15 | 640 | -18 | 11 | 94 | – | – | – | – |
| N#Cc1ccc(O[C@H]2CC[C@H](NC(=O)c3ccc(N4CCC(C#N)(CN5CCC6(CC5)COc5c6ccc6c5C(=O)N(C5CCC(=O)NC5=O)C6=O)CC4)nn3)CC2)cc1Cl (stereo partly drawn) [Compound 227] | 24 | 60 | 170 | 45 | 62 | 30 | – | – | – | – |
| CCC1(CN2CCC3(CC2)COc2c3ccc3c2C(=O)N(C2CCC(=O)NC2=O)C3=O)CCN(c2ccc(C(=O)N[C@H]3CC[C@H](Oc4ccc(C#N)c(C(F)(F)F)c4)CC3)nn2)CC1 (stereo partly drawn) [Compound 248] | 2 | 17 | 5990 | -53 | -16 | 210 | – | – | – | – |
| N#Cc1ccc(O[C@H]2CC[C@H](NC(=O)c3ccc(N4CC5(CCc6cc7c(cc6O5)C(=O)N(C5CCC(=O)NC5=O)C7=O)C4)nn3)CC2)cc1Cl (stereo partly drawn) [Compound 6] | 13 | 28 | 5170 | 58 | 46 | 7500 | – | – | – | – |
